Here are results for 25 molecules from US20110319424A1, “NAPHTHYRIDIN-2(1H) -ONE COMPOUNDS USEFUL AS ANTIBACTERIALS” (priority 2008, published 2011).

Where only a bound is given, the exact number is not on record here.

In the test the test system is Mycobacterium tuberculosis H37Rv. Nature of the test: Mycobacterium tuberculosis H37Rv inhibition assay (MIC, resazurin fluorescence). It counts as cell-based. The settings on record: ATCC 25618 / H37Rv, 144 h, H37Rv strain (ATCC25618), Middlebrook 7H9, six days at 37° C. then resazurin 48 hours.
`O=c1ccc2ncc(F)cc2n1CCN1CCC(NCc2ccc(Br)cn2)CC1` [Example 1, 1-[2-(4-{[(5-Bromo-2-pyridinyl)methyl]amino}-1-piperidinyl)ethyl]-7-fluoro-1,5-naphthyridin-2(1H)-one] came in with an MIC of at most 1 µg/mL.
`Cl.Cl.O=c1ccc2ncc(F)cc2n1CCN1CCC(NCc2ccc(Br)cn2)CC1` [Example 1b, 1-[2-(4-{[(5-Bromo-2-pyridinyl)methyl]amino}-1-piperidinyl)ethyl]-7-fluoro-1,5-napthyridin-2(1H)-one dihydrochloride] returned an MIC of at most 1 µg/mL.
As for `COc1cnc2ccc(=O)n(CCN3CCC(NCc4cnc(Br)s4)CC3)c2c1` [Example 2, 1-[2-(4-{[(2-Bromo-1,3-thiazol-5-yl)methyl]amino}-1-piperidinyl)ethyl]-7-(methyloxy)-1,5-naphthyridin-2(1H)-one], the minimal inhibitory concentration (MIC) is at most 1 µg/mL.
The figure for `COc1cnc2ccc(=O)n(CCN3CCC(NCc4cnc(Br)s4)CC3)c2c1.Cl` [Example 2b, 1-[2-(4-{[(2-Bromo-1,3-thiazol-5-yl)methyl]amino}-1-piperidinyl)ethyl]-7-(methyloxy)-1,5-naphthyridin-2(1H)-one hydrochloride] is at most 1 µg/mL; for `O=c1ccc2ncc(F)cc2n1CCN1CCC(NCc2ccc(Cl)c(Cl)c2)CC1` [Example 3, 1-[2-(4-{[(3,4-Dichlorophenyl)methyl]amino}-1-piperidinyl)ethyl]-7-fluoro-1,5-naphthyridin-2(1H)-one] it is at most 1 µg/mL; for `Cl.Cl.O=c1ccc2ncc(F)cc2n1CCN1CCC(NCc2ccc(Cl)c(Cl)c2)CC1` [Example 3b, 1-[2-(4-{[(3,4-Dichlorophenyl)methyl]amino}-1-piperidinyl)ethyl]-7-fluoro-1,5-naphthyridin-2(1H)-one dihydrochloride] it is at most 1 µg/mL.
In the case of `COc1cnc2ccc(=O)n(CCN3CCC(NCc4ccc(C(F)(F)F)nc4)CC3)c2c1` [Example 4, 7-(Methyloxy)-1-{2-[4-({[6-(trifluoromethyl)-3-pyridinyl]methyl}amino)-1-piperidinyl]ethyl}-1,5-naphthyridin-2(1H)-one] it was at most 1 µg/mL; in that of `COc1cnc2ccc(=O)n(CCN3CCC(NCc4ccc(C(F)(F)F)nc4)CC3)c2c1.Cl` [Example 4b, 7-(Methyloxy)-1-{2-[4-({[6-(trifluoromethyl)-3-pyridinyl]methyl}amino)-1-piperidinyl]ethyl}-1,5-naphthyridin-2(1H)-one hydrochloride], at most 1 µg/mL.
`COc1cnc2ccc(=O)n(CCN3CCC(NCc4nc(C)c(C)s4)CC3)c2c1` [Example 6, 1-[2-(4-{[(4,5-Dimethyl-1,3-thiazol-2-yl)methyl]amino}-1-piperidinyl)ethyl]-7-(methyloxy)-1,5-naphthyridin-2(1H)-one] yielded an MIC of at most 2.4 µg/mL.
With `O=c1ccc2ncccc2n1CCN1CCC(NCc2ccc(Cl)c(Cl)c2)CC1` [Example 8, 1-[2-(4-{[(3,4-Dichlorophenyl)methyl]amino}-1-piperidinyl)ethyl]-1,5-naphthyridin-2(1H)-one], the MIC is at most 1 µg/mL.
In turn, `Cl.Cl.O=c1ccc2ncccc2n1CCN1CCC(NCc2ccc(Cl)c(Cl)c2)CC1` [Example 8b, 1-[2-(4-{[(3,4-Dichlorophenyl)methyl]amino}-1-piperidinyl)ethyl]-1,5-naphthyridin-2(1H)-one dihydrochloride] came in with an MIC of at most 1 µg/mL.
Molecule `O=c1ccc2ncccc2n1CCN1CCC(NCc2ccc(Br)nc2)CC1` [Example 9, 1-[2-(4-{[(6-Bromo-3-pyridinyl)methyl]amino}-1-piperidinyl)ethyl]-1,5-naphthyridin-2(1H)-one] had an MIC of at most 2.4 µg/mL.
The molecule `COc1cnc2ccc(=O)n(CCN3CCC(NCc4ccc(Cl)c(Cl)c4)CC3)c2c1` [Example 11, 1-[2-(4-{[(3,4-Dichlorophenyl)methyl]amino}-1-piperidinyl)ethyl]-7-(methyloxy)-1,5-naphthyridin-2(1H)-one] came in with an MIC of at most 1 µg/mL.
Molecule `COc1cnc2ccc(=O)n(CCN3CCC(NCc4ccc(Cl)c(Cl)c4)CC3)c2c1.Cl` [Example 11b, 1-[2-(4-{[(3,4-Dichlorophenyl)methyl]amino}-1-piperidinyl)ethyl]-7-(methyloxy)-1,5-naphthyridin-2(1H)-one hydrochloride] gave an MIC of at most 1 µg/mL.
On to `COc1cnc2ccc(=O)n(CCN3CCC(NCc4ccc(Cl)c(Cl)c4)CC3)c2c1.Cl.Cl` [Example 11c, 1-[2-(4-{[(3,4-Dichlorophenyl)methyl]amino}-1-piperidinyl)ethyl]-7-(methyloxy)-1,5-naphthyridin-2(1H)-one dihvdrochloride], for which the MIC was at most 1 µg/mL.
For `COc1cnc2ccc(=O)n(CCN3CCC(NCc4ccc(Cl)cc4)CC3)c2c1` [Example 12, 1-[2-(4-{[(4-Chlorophenyl)methyl]amino}-1-piperidinyl)ethyl]-7-(methyloxy)-1,5-naphthyridin-2(1H)-one], the MIC was at most 1 µg/mL.
`COc1cnc2ccc(=O)n(CCN3CCC(NCc4ccc(Cl)cc4)CC3)c2c1.Cl.Cl` [Example 12b, 1-[2-(4-{[(4-Chlorophenyl)methyl]amino}-1-piperidinyl)ethyl]-7-(methyloxy)-1,5-naphthyridin-2(1H)-one dihydrochloride] displayed a minimum inhibitory concentration (MIC) of at most 1 µg/mL.
Consider `COc1cnc2ccc(=O)n(CCN3CCC(NCc4ccc(Cl)cc4)CC3)c2c1.Cl` [Example 12c, 1-[2-(4-{[(4-Chlorophenyl)methyl]amino}-1-piperidinyl)ethyl]-7-(methyloxy)-1,5-naphthyridin-2(1H)-one hydrochloride], for which the MIC is at most 1 µg/mL.
Consider `O=c1ccc2ncc(F)cc2n1CCN1CCC(NCc2ccc(Br)o2)CC1` [Example 34, 1-[2-(4-{[(5-bromo-2-furanyl)methyl]amino}-1-piperidinyl)ethyl]-7-fluoro-1,5-naphthyridin-2(1H)-one], for which the minimal inhibitory concentration (MIC) was at most 2.4 µg/mL.
The figure for `O=c1ccc2ncc(F)cc2n1CCN1CCC(NCc2cc(Cl)ccc2Cl)CC1` [Example 38, 1-[2-(4-{[(2,5-dichlorophenyl)methyl]amino}-1-piperidinyl)ethyl]-7-fluoro-1,5-naphthyridin-2(1H)-one] is at most 2.4 µg/mL; for `O=c1ccc2ncccc2n1CCN1CCC(NCc2ccc(Br)s2)CC1` [Example 48, 1-[2-(4-{[(5-bromo-2-thienyl)methyl]amino}-1-piperidinyl)ethyl]-1,5-naphthyridin-2(1H)-one] it is at most 2.4 µg/mL; for `O=c1ccc2ncccc2n1CCN1CCC(NCc2cnc(Br)s2)CC1` [Example 49, 1-[2-(4-{[(2-bromo-1,3-thiazol-5-yl)methyl]amino}-1-piperidinyl)ethyl]-1,5-naphthyridin-2(1H)-one] it is at most 2.4 µg/mL.
In the case of `COc1ccc(CNC2CCN(CCn3c(=O)ccc4ncccc43)CC2)cc1Cl` [Example 51, 1-{2-[4-({[3-chloro-4-(methyloxy)phenyl]methyl}amino)-1-piperidinyl]ethyl}-1,5-naphthyridin-2(1H)-one] it was at most 2.4 µg/mL; in that of `COc1cnc2ccc(=O)n(CCN3CCC(NCc4nc(Br)cs4)CC3)c2c1` [Example 64, 1-[2-(4-{[(4-bromo-1,3-thiazol-2-yl)methyl]amino}-1-piperidinyl)ethyl]-7-(methyloxy)-1,5-naphthyridin-2(1H)-one], at most 2.4 µg/mL.
The figure for `COc1cnc2ccc(=O)n(CCN3CCC(NCc4ccc(F)c(C)n4)CC3)c2c1` [Example 68, 1-[2-(4-{[(5-fluoro-6-methyl-2-pyridinyl)methyl]amino}-1-piperidinyl)ethyl]-7-(methyloxy)-1,5-naphthyridin-2(1H)-one] is at most 2.4 µg/mL.
